Legend:
Glucocorticoid receptor [1] = molecular target: T1, Glucocorticoid receptor (Homo sapiens, UniProt P04150); test: Displacement of [3H]dexamethasone from human glucocorticoid receptor expressed in recombinant baculovirus
T1 sequence (P04150 whole entry): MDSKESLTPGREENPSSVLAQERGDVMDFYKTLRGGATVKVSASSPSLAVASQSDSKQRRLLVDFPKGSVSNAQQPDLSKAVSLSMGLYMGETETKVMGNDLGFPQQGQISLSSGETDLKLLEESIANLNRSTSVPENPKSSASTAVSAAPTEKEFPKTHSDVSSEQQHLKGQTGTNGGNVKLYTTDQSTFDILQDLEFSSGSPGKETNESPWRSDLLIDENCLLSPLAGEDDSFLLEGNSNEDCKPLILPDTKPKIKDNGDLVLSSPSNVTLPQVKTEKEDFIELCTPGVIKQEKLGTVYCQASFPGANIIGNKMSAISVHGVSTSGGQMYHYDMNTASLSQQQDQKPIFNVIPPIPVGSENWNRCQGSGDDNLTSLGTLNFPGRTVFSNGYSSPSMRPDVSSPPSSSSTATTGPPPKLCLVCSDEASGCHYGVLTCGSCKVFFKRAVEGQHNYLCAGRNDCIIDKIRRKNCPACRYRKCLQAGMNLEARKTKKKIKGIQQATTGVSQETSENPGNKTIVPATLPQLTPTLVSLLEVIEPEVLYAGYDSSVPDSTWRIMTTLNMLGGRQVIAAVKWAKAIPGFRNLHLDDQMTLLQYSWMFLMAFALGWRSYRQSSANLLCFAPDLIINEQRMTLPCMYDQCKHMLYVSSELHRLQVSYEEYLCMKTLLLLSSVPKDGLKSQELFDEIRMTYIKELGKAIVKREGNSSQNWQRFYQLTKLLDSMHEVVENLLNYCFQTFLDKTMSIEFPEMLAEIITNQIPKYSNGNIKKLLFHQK

Glucocorticoid receptor [2] = molecular target: T1, Glucocorticoid receptor; test: Binding affinity to glucocorticoid receptor in SW1353 cells by whole-cell binding assay; format: cell-based
Glucocorticoid receptor [3] = molecular target: T1, Glucocorticoid receptor; test: Antagonist activity at human glucocorticoid receptor in SW1353 cells assessed as inhibition of dexamethasone-induced luciferase expression by MMTV5 reporter gene assay; format: functional, cell-based
CYP2C9 = CYP2C9 (Homo sapiens, UniProt P11712); test: Inhibition of CYP2C9 at 1 uM; format: ADME
CYP2D6 = CYP2D6 (Homo sapiens, UniProt P10635); test: Inhibition of CYP2D6 at 1 uM; format: ADME
CYP2C19 = CYP2C19 (Homo sapiens, UniProt P33261); test: Inhibition of CYP2C19 at 1 uM; format: ADME
Sequence of CYP2C19 (P33261 whole entry): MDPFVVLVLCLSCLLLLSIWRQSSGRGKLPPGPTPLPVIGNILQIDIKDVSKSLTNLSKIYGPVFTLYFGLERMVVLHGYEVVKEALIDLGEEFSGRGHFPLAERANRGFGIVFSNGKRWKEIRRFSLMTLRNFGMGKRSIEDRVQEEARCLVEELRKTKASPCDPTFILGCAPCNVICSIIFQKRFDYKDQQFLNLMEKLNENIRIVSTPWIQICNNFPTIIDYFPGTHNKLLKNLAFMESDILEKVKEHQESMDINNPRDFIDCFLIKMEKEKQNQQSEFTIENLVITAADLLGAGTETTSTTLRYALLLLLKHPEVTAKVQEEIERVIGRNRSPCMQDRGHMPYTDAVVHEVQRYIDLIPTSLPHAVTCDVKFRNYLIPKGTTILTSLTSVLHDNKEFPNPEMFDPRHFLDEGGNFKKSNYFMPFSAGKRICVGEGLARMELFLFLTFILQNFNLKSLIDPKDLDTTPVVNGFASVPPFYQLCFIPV

Sequence of CYP2D6 (P10635 whole entry): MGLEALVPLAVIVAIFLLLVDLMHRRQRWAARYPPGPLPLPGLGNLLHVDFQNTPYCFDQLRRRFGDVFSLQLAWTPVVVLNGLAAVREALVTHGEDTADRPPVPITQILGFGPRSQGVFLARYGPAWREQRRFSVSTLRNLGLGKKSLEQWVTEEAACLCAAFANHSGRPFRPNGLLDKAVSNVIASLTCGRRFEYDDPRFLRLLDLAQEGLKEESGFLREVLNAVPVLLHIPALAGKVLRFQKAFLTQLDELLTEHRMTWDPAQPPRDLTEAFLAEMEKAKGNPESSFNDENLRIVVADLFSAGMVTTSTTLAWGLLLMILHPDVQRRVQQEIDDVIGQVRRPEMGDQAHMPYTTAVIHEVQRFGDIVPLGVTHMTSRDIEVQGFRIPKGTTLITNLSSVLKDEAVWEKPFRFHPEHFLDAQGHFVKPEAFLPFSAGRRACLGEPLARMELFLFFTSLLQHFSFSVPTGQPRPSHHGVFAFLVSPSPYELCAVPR
Sequence of CYP2C9 (P11712 whole entry): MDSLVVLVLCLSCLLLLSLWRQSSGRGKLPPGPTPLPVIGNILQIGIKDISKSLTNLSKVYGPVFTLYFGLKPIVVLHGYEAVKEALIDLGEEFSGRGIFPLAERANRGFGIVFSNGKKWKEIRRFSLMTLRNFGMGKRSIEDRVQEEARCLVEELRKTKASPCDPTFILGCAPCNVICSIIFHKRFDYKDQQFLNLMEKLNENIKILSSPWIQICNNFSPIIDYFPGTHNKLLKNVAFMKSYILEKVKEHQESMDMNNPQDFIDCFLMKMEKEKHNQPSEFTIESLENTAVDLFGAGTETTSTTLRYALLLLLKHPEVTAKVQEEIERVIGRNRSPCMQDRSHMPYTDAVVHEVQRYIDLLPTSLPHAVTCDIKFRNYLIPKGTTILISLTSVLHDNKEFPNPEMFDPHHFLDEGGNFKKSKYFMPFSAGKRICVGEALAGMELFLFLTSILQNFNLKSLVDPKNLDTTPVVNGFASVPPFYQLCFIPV

| Compound | Ki (Glucocorticoid receptor [1]) | further results |
| --- | --- | --- |
| CS(=O)(=O)c1ccc(S(=O)(=O)N2CCC3=CC(=O)CCC3(Cc3ccccc3)C2)cc1 (racemic) | 137 nM | – |
| CC#C[C@@]1(O)CC[C@@]2(Cc3ccccc3)c3ccc(O)cc3CC[C@@H]2C1 | 0.6 nM | Ki (Glucocorticoid receptor [2]): 5.5 nM; Ki (Glucocorticoid receptor [3]): 4 nM |
| COc1ccc(C[C@]23CCC(=O)C=C2CCN(S(=O)(=O)c2ccc(C(C)(C)C)cc2)C3)cc1 | 4 nM | Ki (Glucocorticoid receptor [2]): 352 nM; Ki (Glucocorticoid receptor [3]): 200 nM |
| O=C1C=C2CCN(S(=O)(=O)Nc3ccccc3)CC2(Cc2ccccc2)CC1 (racemic) | 1200 nM | – |
| CC(C)(C)c1ccc(S(=O)(=O)N2CCC3=CC(=O)CCC3(Cc3ccc(N4CCCCC4)cc3)C2)cc1 (racemic) | 9 nM | Ki (Glucocorticoid receptor [3]): > 1000 nM |
| O=C1C=C2CCN(S(=O)(=O)c3ccc(-c4ccccc4)cc3)CC2(Cc2ccccc2)CC1 (centres undefined) | 55 nM | – |
| CCCCC(=O)N1CCC2=CC(=O)CCC2(Cc2ccccc2)C1 (racemic) | > 10000 nM | – |
| CN(C)S(=O)(=O)Nc1ccc(CC23CCC(=O)C=C2CCN(S(=O)(=O)c2ccc(C(C)(C)C)cc2)C3)cc1 (racemic) | 13 nM | Ki (Glucocorticoid receptor [3]): 323 nM |
| CN(C)c1ccc(CC23CCC(=O)C=C2CCN(S(=O)(=O)c2ccc(C(C)(C)C)cc2)C3)cc1 (racemic) | 15 nM | Ki (Glucocorticoid receptor [3]): > 1000 nM |
| COc1ccc(S(=O)(=O)N2CCC3=CC(=O)CCC3(Cc3ccccc3)C2)cc1 (racemic) | 216 nM | – |
| O=C1C=C2CCN(C(=O)Nc3ccccc3)CC2(Cc2ccccc2)CC1 (racemic) | > 10000 nM | – |
| O=C1C=C2CCN(S(=O)(=O)c3ccccc3C(F)(F)F)CC2(Cc2ccccc2)CC1 (racemic) | 4450 nM | – |
| CC(C)(C)c1ccc(S(=O)(=O)N2CCC3=CC(=O)CCC3(Cc3ccccc3)C2)cc1 (racemic) | 14 nM | Ki (Glucocorticoid receptor [3]): > 1000 nM |
| CC(C)(C)c1ccc(S(=O)(=O)N2CCC3=CC(=O)CCC3(Cc3ccc(-c4ccncc4)cc3)C2)cc1 (racemic) | 2 nM | inhibition at 1 µM (CYP2C9): 76%; Ki (Glucocorticoid receptor [3]): 180 nM; inhibition at 1 µM (CYP2D6): 44%; inhibition at 1 µM (CYP2C19): 61% |
| CC(C)(C)c1ccc(S(=O)(=O)N2CCC3=CC(=O)CCC3(Cc3ccc(NS(C)(=O)=O)cc3)C2)cc1 (racemic) | 13 nM | Ki (Glucocorticoid receptor [3]): > 1000 nM |
| O=C1C=C2CCN(S(=O)(=O)c3ccccc3)CC2(Cc2ccccc2)CC1 (racemic) | 225 nM | – |
| CS(=O)(=O)Nc1ccc(S(=O)(=O)N2CCC3=CC(=O)CCC3(Cc3ccccc3)C2)cc1 (racemic) | 950 nM | – |
| O=C1C=C2CCN(Cc3ccncc3)CC2(Cc2ccccc2)CC1 (racemic) | > 10000 nM | – |
| O=C1C=C2CCN(C(=O)c3ccccc3)CC2(Cc2ccccc2)CC1 (racemic) | > 10000 nM | – |
| O=C1C=C2CCN(S(=O)(=O)c3ccc([N+](=O)[O-])cc3)CC2(Cc2ccccc2)CC1 (racemic) | 1250 nM | – |
| CS(=O)(=O)Nc1ccccc1S(=O)(=O)N1CCC2=CC(=O)CCC2(Cc2ccccc2)C1 (racemic) | 1950 nM | – |
| CC(C)(C)c1ccc(S(=O)(=O)N2CCC3=CC(=O)CC[C@@]3(Cc3ccccc3)C2)cc1 | > 10000 nM | – |
| COc1cccc(CC23CCC(=O)C=C2CCN(S(=O)(=O)c2ccc(C(C)(C)C)cc2)C3)c1 (centres undefined) | 76 nM | – |
| CC(C)(C)c1ccc(S(=O)(=O)N2CCC3=CC(=O)CCC3(Cc3ccc(F)cc3)C2)cc1 (racemic) | 5 nM | Ki (Glucocorticoid receptor [3]): > 1000 nM |
| CC(=O)Nc1ccc(S(=O)(=O)N2CCC3=CC(=O)CCC3(Cc3ccccc3)C2)cc1 (racemic) | 750 nM | – |

| Compound | Ki (Glucocorticoid receptor [1]) | further results |
| --- | --- | --- |
| CC(C)(C)c1ccc(S(=O)(=O)N2CCC3=CC(=O)CCC3(Cc3ccc(N4CCOCC4)cc3)C2)cc1 (centres undefined) | 10 nM | Ki (Glucocorticoid receptor [3]): 400 nM |
| N#Cc1ccccc1S(=O)(=O)N1CCC2=CC(=O)CCC2(Cc2ccccc2)C1 (racemic) | 1000 nM | – |
| COc1cccc(S(=O)(=O)N2CCC3=CC(=O)CCC3(Cc3ccccc3)C2)c1 (racemic) | 196 nM | – |
| CC(C)(C)c1ccc(S(=O)(=O)N2CCC3=CC(=O)CCC3(Cc3ccc([N+](=O)[O-])cc3)C2)cc1 (racemic) | 45 nM | – |
| COc1cccc(OC)c1S(=O)(=O)N1CCC2=CC(=O)CCC2(Cc2ccccc2)C1 (racemic) | > 10000 nM | – |
| O=C1C=C2CCN(S(=O)(=O)c3ccc(F)cc3)CC2(Cc2ccccc2)CC1 (racemic) | 800 nM | – |
| CN(C)c1ccc(S(=O)(=O)N2CCC3=CC(=O)CCC3(Cc3ccccc3)C2)cc1 (racemic) | 113 nM | – |
| CC(C)(C)c1ccc(S(=O)(=O)N2CCC3=CC(=O)CCC3(Cc3ccc(C#N)cc3)C2)cc1 (racemic) | 65 nM | – |
| CS(=O)(=O)Nc1cccc(S(=O)(=O)N2CCC3=CC(=O)CCC3(Cc3ccccc3)C2)c1 (centres undefined) | 2100 nM | – |
| CC(C)(C)c1ccc(S(=O)(=O)N2CCC3=CC(=O)CCC3(Cc3ccc(Br)cc3)C2)cc1 (centres undefined) | 9 nM | Ki (Glucocorticoid receptor [3]): 200 nM |
| O=C1C=C2CCN(S(=O)(=O)c3ccc(Cl)cc3)CC2(Cc2ccccc2)CC1 (racemic) | 193 nM | – |
| COc1ccc(CN2CCC3=CC(=O)CCC3(Cc3ccccc3)C2)cc1 (racemic) | 2250 nM | – |
| O=C1C=C2CCN(Cc3ccccc3)CC2(Cc2ccccc2)CC1 (racemic) | 3700 nM | – |
| CCCCS(=O)(=O)N1CCC2=CC(=O)CCC2(Cc2ccccc2)C1 (racemic) | > 10000 nM | – |
| O=C1C=C2CCN(S(=O)(=O)c3ccc(Oc4ccccc4)cc3)CC2(Cc2ccccc2)CC1 (racemic) | 163 nM | – |
| O=C1C=C2CCN(S(=O)(=O)c3cccc(Cl)c3)CC2(Cc2ccccc2)CC1 (racemic) | 432 nM | – |
| O=C1C=C2CCN(S(=O)(=O)c3ccc(N4CCOCC4)cc3)CC2(Cc2ccccc2)CC1 (centres undefined) | 64 nM | – |
| COc1ccc(CC23CCC(=O)C=C2CCN(S(=O)(=O)c2ccc(C(C)(C)C)cc2)C3)cc1 (racemic) | 6 nM | Ki (Glucocorticoid receptor [3]): 230 nM |
| COc1ccc(S(=O)(=O)N2CCC3=CC(=O)CCC3(Cc3ccccc3)C2)cc1OC (racemic) | 1300 nM | – |
| CC(=O)Nc1ccc(CC23CCC(=O)C=C2CCN(S(=O)(=O)c2ccc(C(C)(C)C)cc2)C3)cc1 (racemic) | 56 nM | Ki (Glucocorticoid receptor [3]): > 1000 nM |
| COc1ccc(N2CCC3=CC(=O)CCC3(Cc3ccccc3)C2)cc1 (centres undefined) | > 5000 nM | – |
| O=C1C=C2CCN(S(=O)(=O)c3cccc([N+](=O)[O-])c3)CC2(Cc2ccccc2)CC1 (racemic) | 3000 nM | – |
| Cc1ccc(S(=O)(=O)N2CCC3=CC(=O)CCC3(Cc3ccccc3)C2)cc1 (racemic) | 99 nM | – |
| CC(C)(C)c1ccc(S(=O)(=O)N2CCC3=CC(=O)CCC3(Cc3ccc(N)cc3)C2)cc1 (racemic) | 99 nM | – |
| CC(C)(C)c1ccc(S(=O)(=O)N2CCC3=CC(=O)CC[C@]3(Cc3ccccc3)C2)cc1 | 4 nM | Ki (Glucocorticoid receptor [3]): 200 nM |

— ChEMBL document CHEMBL1139829, “2-Benzenesulfonyl-8a-benzyl-hexahydro-2H-isoquinolin-6-ones as selective glucocorticoid receptor antagonists” (Bioorg Med Chem Lett, 2007)
